The source of these data is patent publication US20080262097A1, “Formulations” (priority 2005, published 2008).

Values after ≈ are worked out from the molar mass of the structure shown. Read-outs that look alike come from different tables or passages of the source.

As usually defined, the MIC is the lowest concentration that inhibits growth of the organism.

In one test the test system is P. avidum ATCC 25577. In words: MIC assay. The format is cell-based. The settings on record: Cutibacterium avidum, ATCC25577; P. avidum ATCC 25577 (resistance None). As to the method: (§1) The Propionibacterium spp organisms were cultured and maintained on Wilkins-Chalgren Anaerobe Medium (agar and broth) at pH 6.0; cultures were incubated anaerobically at 37° C. for 72 hours.
(§2) This is a standard international method for quantitatively assessing the antimicrobial activity of a compound in a liquid medium. The method used a 96-well microtitre plate, capable of holding about 200 μl of liquid per well. […] The culture media were as described above for the relevant test organisms.
(§3) The wells were inoculated with a liquid suspension of freshly grown micro-organism and incubated under the conditions described above. After incubation, the microtitre plate was examined visually (with the aid of a light box) for cell pellets in and/or opaque wells, which would indicate microbial growth. The MIC value was recorded as the lowest concentration of test compound required to inhibit microbial growth, ie, the lowest concentration for which the liquid in the well remained clear.
(§4) The assays were conducted in duplicate and included both negative (culture medium only) and positive (culture medium, diluting solvent and inoculum) controls.

Another test deals with P. granulosum PRP-043. In words: MIC assay. The settings on record: P. granulosum PRP-043 (resistance MLS). The format is cell-based. The procedure:
as §1, §2, §3, §4

In a further test the test system is P. granulosum NCTC 11865. As to the kind of experiment: MIC assay. Type of test: cell-based. The settings on record: P. granulosum NCTC 11865 (resistance None). As to the method:
as §1, §2, §3, §4

The next test concerns P. granulosum PRP-055. In words: MIC assay. The format is cell-based. Particulars: P. granulosum PRP-055 (resistance None). The procedure:
as §1, §2, §3, §4

The subject of the next test is P. granulosum PRP-044. As to the kind of experiment: MIC assay. The format is cell-based. Particulars: P. granulosum PRP-044 (resistance MLS). As to the method:
as §1, §2, §3, §4

The subject of another test is P. granulosum PRP-005. In words: MIC assay. The format is cell-based. Particulars: P. granulosum PRP-005 (resistance MLSK). As to the method:
as §1, §2, §3, §4

The next test has as its system S. aureus CPHL EMRSA 16. As to the kind of experiment: Disc diffusion assay (DDA). Type of test: cell-based, Staphylococcus aureus. Particulars: zone diameter, 200 μg per disc. As to the method:
(§5) Other staphylococcal strains were also tested, as described in Example 5 below. These included certain antibiotic resistant staphylococci, such as the methicillin resistant S. aureus (MRSA) strains EMRSA-15 and EMRSA-16, both available from the Central Public Health Laboratory (CPHL), Colindale, UK. These strains are resistant not only to all beta-lactams but also to a number of other antibiotics in clinical use, making them a serious threat to human health. They are also responsible for the majority (>95%) of hospital-acquired MRSA infections in the UK.
(§6) The staphylococci and enterococci were cultured and maintained on Mueller-Hinton Medium (agar and broth) at pH 7.2; they were incubated aerobically at 37° C. for 24 hours.
(§7) A sterile paper disc was impregnated with a sample of the test compound and a minimum of 30 minutes allowed for the solvents to evaporate as far as possible. The disc was then placed on an agar plate onto which the test micro-organism had been inoculated. The plate was then incubated under the conditions described above, following which it was examined visually for signs of bacterial growth. If the test compound had antimicrobial activity, a circular zone of no growth would be obtained around the disc. The diameter of this zone of “inhibition” was measured using a ProtoCOL™ automated zone sizer (Synbiosis, Cambridge, UK). In general, a greater diameter and/or area of the zone of inhibition indicates a greater antimicrobial activity in the relevant test compound, although other factors such as test compound mobility through the agar gel may also influence the result.
(§8) The area of the zone of inhibition was calculated from the measured zone diameter (D) using the formula π(D/2)^2.
In general terms: In agar diffusion tests the substance spreads into inoculated agar from a disc or well.

The test system of a further test is S. aureus CPHL EMRSA 15. In words: Disc diffusion assay (DDA). Type of test: cell-based, Staphylococcus aureus. The settings on record: zone diameter, 200 μg per disc. The procedure: as §5, §6, §7, §8
The next test relates to S. aureus ATCC 29213. As to the kind of experiment: Time-to-kill (TTK) assay. Type of test: cell-based, Staphylococcus aureus. Particulars: BP 125 μg/ml and/or TBHQ […]; for CFU/ml 0.5: 0.5 hours; for CFU/ml 1.0: 1 hour. As to the method: This quantitative assay was designed to assess the time taken for a test compound to kill a test micro-organism.
Samples from an incubated liquid culture containing the relevant test compound and micro-organism were taken at timed intervals and inoculated onto agar plates. The plates were then incubated as described above and subsequently examined visually for growth. The numbers of viable microbial colonies on the plates were counted and converted to colony-forming units per ml (cfu/ml) using the appropriate dilution factor. By way of example, a colony count of 25 colonies from an agar plate carrying 100 μl of inoculum which had been serially diluted to 10^−6 would yield a viable cell count of 25×10 (to correct to 1 ml)×106 which would be equivalent to 2.5×10^8 cfu/ml. These cfu values were then converted into log10 values and plotted graphically against time of sample removal.
At each time point, samples were assessed in triplicate; the final cfu/ml value was an average (mean) of the three readings.
An appropriate concentration of test compound(s) for use in this assay was determined based on previously conducted MIC/FIC assays.
The TTK assay can provide another measure of synergy, as combinations of compounds may interact to kill test micro-organisms more quickly than the individual compounds alone. This would be indicated by a steeper decline in viable bacterial cell counts as compared to those observed for the individual compounds alone.
TTK assays were then conducted, as described above, on samples of BP, TBHQ and a BP/TBHQ mixture, using S. aureus ATCC 29213 as the test organism. The solvents used were DMSO for the BP and ethanol for the TBHQ. The results are shown in Table 3. cfu values were measured at time 0, 0.5 hours and 1 hour.

A further test concerns S. aureus ATCC 12605. As to the kind of experiment: MIC assay. The format is cell-based. Particulars: Staphylococcus aureus, ATCC12605. As to the method: as §6, §2, §3, §4
The next test deals with S. aureus ATCC 12606. In words: MIC assay. Particulars: Staphylococcus aureus, ATCC12606. Type of test: cell-based. The procedure:
as §6, §2, §3, §4

In test [1] the test system is Staphylococcus xylosus ATCC 29971. As to the kind of experiment: MIC assay. Type of test: cell-based. Particulars: ATCC29971. As to the method: as §6, §2, §3, §4
Another test concerns S. aureus ATCC 12602. In words: MIC assay. Type of test: cell-based. Particulars: Staphylococcus aureus, ATCC12602. As to the method:
as §6, §2, §3, §4

In a further test the test system is S. aureus CPHL VISA Mu3. As to the kind of experiment: MIC assay. The format is cell-based. The settings on record: Staphylococcus aureus. As to the method:
as §6, §2, §3, §4

A further test relates to S. aureus CPHL EMRSA 17. In words: MIC assay. Type of test: cell-based. Particulars: Staphylococcus aureus. As to the method: as §6, §2, §3, §4
Test [2] has as its system Staphylococcus simulans ATCC 27848. As to the kind of experiment: MIC assay. The format is cell-based. The settings on record: ATCC27848. The procedure: as §6, §2, §3, §4
A further test has as its system S. aureus ATCC 12604. In words: MIC assay. The format is cell-based. Particulars: Staphylococcus aureus, ATCC12604. As to the method:
as §6, §2, §3, §4

`O=C(OOC(=O)c1ccccc1)c1ccccc1` [benzoyl peroxide]: the MIC against P. avidum ATCC 25577 came out at 31.2 µg/mL (≈ 129 µM); with P. granulosum PRP-043 it was 62.5 µg/mL (≈ 258 µM); in the test with P. granulosum NCTC 11865, 15.6 µg/mL (≈ 64.4 µM); against P. granulosum PRP-055, 15.6 µg/mL (≈ 64.4 µM); against P. granulosum PRP-044, 31.2 µg/mL (≈ 129 µM); with P. granulosum PRP-005 it was 15.6 µg/mL (≈ 64.4 µM). Moreover, the MIC stood at 250 µg/mL (≈ 1030 µM) in the test on S. aureus ATCC 12605 (S. aureus ATCC 12605, read-out: MIC); 250 µg/mL (≈ 1030 µM) in the test on S. aureus ATCC 12606 (S. aureus ATCC 12606, read-out: MIC); 250 µg/mL (≈ 1030 µM) in test [1] (Staphylococcus xylosus ATCC 29971, read-out: MIC); 125 µg/mL (≈ 516 µM) in the test with S. aureus ATCC 12602; 125 µg/mL (≈ 516 µM) against S. aureus CPHL VISA Mu3; 125 µg/mL (≈ 516 µM) with S. aureus CPHL EMRSA 17. The MIC in test [2] (Staphylococcus simulans ATCC 27848, read-out: MIC) is > 250 µg/mL; against S. aureus ATCC 12604, 125 µg/mL (≈ 516 µM). For the same compound, the DDA is 10.80 mm in the test with S. aureus CPHL EMRSA 16 and 10.17 mm in the test on S. aureus CPHL EMRSA 15. Further, in the test with S. aureus ATCC 29213, the Time to kill is recorded as >1 h. Besides, the “CFU/ml 0.5” value in the test on S. aureus ATCC 29213 is given as 6.20 × 10^5 CFU/ml. Besides, the “CFU/ml 1.0” value in the test on S. aureus ATCC 29213 was 3.67 × 10^4 CFU/ml. Further, the “CFU/ml t = 0” value with S. aureus ATCC 29213 was 7.63 × 10^5 CFU/ml.

For `CC(C)(C)c1cc(O)ccc1O` [TBHQ, t-butyl hydroquinone], the minimum inhibitory concentration (MIC) in the test on P. avidum ATCC 25577 was 3.9 µg/mL (≈ 23.5 µM); against P. granulosum PRP-043, 15.6 µg/mL (≈ 93.9 µM); with P. granulosum NCTC 11865, 3.9 µg/mL (≈ 23.5 µM); against P. granulosum PRP-055, 3.9 µg/mL (≈ 23.5 µM); against P. granulosum PRP-044, 15.6 µg/mL (≈ 93.9 µM); in the test with P. granulosum PRP-005, 62.5 µg/mL (≈ 376 µM). In addition, the MIC against S. aureus ATCC 12605 is 3.9 µg/mL (≈ 23.5 µM); with S. aureus ATCC 12606, 7.8 µg/mL (≈ 46.9 µM); in [1] (Staphylococcus xylosus), 7.8 µg/mL (≈ 46.9 µM); against S. aureus ATCC 12602, 3.9 µg/mL (≈ 23.5 µM); in the test with S. aureus CPHL VISA Mu3, 3.9 µg/mL (≈ 23.5 µM); in the test on S. aureus CPHL EMRSA 17, 1.95 µg/mL (≈ 11.7 µM). Moreover, the MIC (in [2] (Staphylococcus simulans); against S. aureus ATCC 12604) was 7.8 µg/mL (≈ 46.9 µM) in each case. In addition, the figures for the DDA in the test on S. aureus CPHL EMRSA 16 and with S. aureus CPHL EMRSA 15 were 67.72 mm and 55.14 mm, respectively. Moreover, in the test with S. aureus ATCC 29213, the Time to kill was >1 h. Further, in the test on S. aureus ATCC 29213, the “CFU/ml 0.5” value was 7.40 × 10^5 CFU/ml. Besides, in the test on S. aureus ATCC 29213, the “CFU/ml 1.0” value was 8.47 × 10^5 CFU/ml. Also, the “CFU/ml t = 0” value with S. aureus ATCC 29213 was 7.63 × 10^5 CFU/ml.
